In patent EP4324461A1, “(E)-N-CINAMOYLAMINOALKANOLES WITH MELANOGENESIS INHIBITORY ACTIVITY” (UNIWERSYTET JAGIELLONSKI, priority 2022, dated 2024):

Columns and labels:
[1] = tested on: human reconstructed epidermis model EpiDerm™; experiment: Extended skin irritation test in reconstructed human epidermis (EpiDerm), 2 and 7 days; format: cell-based; conditions: 1.0% in 50% PEG (10 µL)
Method: In order to perform extended skin irritation (safety) tests on the reconstructed human epidermis, the exposure time to the tested compounds was extended to 2 and 7 days in the human reconstructed epidermis model EpiDerm™ from MatTek. The epidermis was cultured according to the manufacturer's recommendations, using appropriate multi-well plates and culture media. Solutions of the tested compounds were applied to the epidermis using a positive displacement pipette and distributed using a sterile glass bulb headed Pasteur pipette. […] The epidermis was cultured in an incubator ensuring appropriate humidity, temperature (37 °C) and CO2 concentration (5%). The medium was replaced daily. After an appropriate incubation time, i.e. 2 days or 7 days, the epidermis was rinsed with sterile DPBS and incubated with MTT (Thiazolyl Blue Tetrazolium bromide) solution at 37 °C for 3 hours. After this time, a purple color of formazan was observed, correlated with tissue viability. […] Moreover, in the medium collected after the first 24 hours of EpiDerm epidermis culture, the level of interleukin 1α (Il-1α), which is a mediator of inflammation, was determined. Its level correlates with the unfavorable (irritating) effect of the tested substances on the epidermis. The level of IL-1α was determined using the Cayman Elisa test. […] Table 6. Viability results and results of interleukin 1α concentration measurement in the culture medium in the irritation test in the reconstructed human epidermis model EpiDerm.

[2] = tested on: S. typhimurium TA98; experiment: Ames microplate test, TA98; format: cell-based, Salmonella typhimurium;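 further: reference level is the mean solvent-control yellow wells plus SD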
Method: (§1) Bacteria were grown overnight in growth medium.
(§2) Table 9. Ames microplate test results.

[3] = tested on: S. typhimurium TA100; experiment: Ames microplate test, TA100; format: cell-based, Salmonella typhimurium;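 further: reference level is the mean solvent-control yellow wells plus SD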
Method: as §1, §2

[4] = tested on: S. typhimurium TA1537; experiment: Ames microplate test, TA1537; format: cell-based, Salmonella typhimurium;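 further: reference level is the mean solvent-control yellow wells plus SD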
Method: as §1, §2

[5] = tested on: S. typhimurium TA1535; experiment: Ames microplate test, TA1535;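 further: bacteria exposed to compound 90 min at 37 °C, then kept 48 h at 37 °C with indicator medium in 384-well plates, scoring wells that turned yellow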
[6] = tested on: E. coli WP2; experiment: Ames microplate test, E. coli WP2;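 further: bacteria treated 90 min at 37 °C in 24-well plates, then indicator medium dispensed to 384-well plates and incubated 48 h before yellow-well counting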
Method: The study used the Ames microplate test (Ames MPF™ Penta 2 by Xenometrix, Allschwil, Switzerland). Growth medium, exposure medium, indicator medium, positive controls, hepatic microsomal fraction, NADP, glucose-6-phosphate, Salmonella typhimurium and Escherichia coli strains were components of the purchased experimental kit. Bacteria were grown overnight in growth medium. They were then exposed to the test compound at the appropriate concentration in exposure medium without or with the rat microsomal fraction S9 in 24-well plates for 90 min at 37 °C with shaking. Then, indicator medium was added to the wells and pipetted into 384-well plates, which were incubated for 48 hours at 37 °C without shaking. Results were assessed by counting the wells in which the medium turned yellow for each experimental condition.

O=C(/C=C/c1ccccc1)NCCCCCCO [H-425/21, (E)-N-(6-hydroxyhexyl)cinnamic acid amide]
Il-1α in culture medium ([1]; medium after the first 24 hours): 60.29 ± 1.08 pg/mL | Viability [% of control, mean±SD] ([1]; 2 days): 99.75±15.49 % of control | Viability [% of control, mean±SD] ([1]; 7 days): 104.01±1.11 % of control | Increase in the number of yellow wells compared to the reference level ([2]; 0.5 mM, +S9): 0.42 | Increase in the number of yellow wells compared to the reference level ([2]; 0.5 mM, without S9): 0.27 | Increase in the number of yellow wells compared to the reference level ([2]; 1.0 mM, +S9): 0.42 | Increase in the number of yellow wells compared to the reference level ([2]; 1.0 mM, without S9): 0.54 | Increase in the number of yellow wells compared to the reference level ([2]; 2.0 mM, +S9): 0.63 | Increase in the number of yellow wells compared to the reference level ([2]; 2.0 mM, without S9): 0.80 | Increase in the number of yellow wells compared to the reference level ([3]; 0.5 mM, +S9): 0.50 | Increase in the number of yellow wells compared to the reference level ([3]; 0.5 mM, without S9): 0.73 | Increase in the number of yellow wells compared to the reference level ([3]; 1.0 mM, +S9): 0.69 | Increase in the number of yellow wells compared to the reference level ([3]; 1.0 mM, without S9): 0.80 | Increase in the number of yellow wells compared to the reference level ([3]; 2.0 mM, +S9): 0.58 | Increase in the number of yellow wells compared to the reference level ([3]; 2.0 mM, without S9): 0.73 | Increase in the number of yellow wells compared to the reference level ([4]; 0.5 mM, +S9): 1.33 | Increase in the number of yellow wells compared to the reference level ([4]; 0.5 mM, without S9): 0.09 | Increase in the number of yellow wells compared to the reference level ([4]; 1.0 mM, +S9): 0.00 | Increase in the number of yellow wells compared to the reference level ([4]; 1.0 mM, without S9): 0.18 | Increase in the number of yellow wells compared to the reference level ([4]; 2.0 mM, +S9): 1.00 | Increase in the number of yellow wells compared to the reference level ([4]; 2.0 mM, without S9): 0.82 | Increase in the number of yellow wells compared to the reference level ([5]; 0.5 mM, +S9): 0.54 | Increase in the number of yellow wells compared to the reference level ([5]; 0.5 mM, without S9): 1.04 | Increase in the number of yellow wells compared to the reference level ([5]; 1.0 mM, +S9): 0.40 | Increase in the number of yellow wells compared to the reference level ([5]; 1.0 mM, without S9): 0.59 | Increase in the number of yellow wells compared to the reference level ([5]; 2.0 mM, +S9): 0.94 | Increase in the number of yellow wells compared to the reference level ([5]; 2.0 mM, without S9): 0.45 | Increase in the number of yellow wells compared to the reference level ([6]; 0.5 mM, +S9): 0.75 | Increase in the number of yellow wells compared to the reference level ([6]; 0.5 mM, without S9): 0.17 | Increase in the number of yellow wells compared to the reference level ([6]; 1.0 mM, +S9): 0.83 | Increase in the number of yellow wells compared to the reference level ([6]; 1.0 mM, without S9): 0.67 | Increase in the number of yellow wells compared to the reference level ([6]; 2.0 mM, +S9): 0.75 | Increase in the number of yellow wells compared to the reference level ([6]; 2.0 mM, without S9): 1.00
